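Each compound was tested at five concentrations against cells in 96-well plates for 48 hours. The concentration for 50% growth inhibition is given as GI50.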 Activity calls are given as the source filed them. Rule as the data show it: active = GI50 up to about 1.1 µM and inactive = higher.
Columns and labels:
Assay in all cases: inhibition of tumour cell growth, NCI panel, 48 h
786-0 = tested on: 786-0
A498 = tested on: A498
A549 = tested on: A549
DMS-273 = tested on: DMS-273
HL-60 = tested on: HL-60
MCF7 = tested on: MCF7
MDA-MB-231 = tested on: MDA-MB-231
NCI-H522 = tested on: NCI-H522
NCI/ADR-RES = tested on: NCI/ADR-RES
PC-3 = tested on: PC-3
RXF 393 = tested on: RXF 393
SF-268 = tested on: SF-268
SK-MEL-2 = tested on: SK-MEL-2
SK-MEL-5 = tested on: SK-MEL-5
SK-OV-3 = tested on: SK-OV-3
TK-10 = tested on: TK-10
U-251 = tested on: U-251
UO-31 = tested on: UO-31
NCI-H226 = tested on: NCI-H226
SNB-19 = tested on: SNB-19

Compound	GI50 (786-0)	GI50 (A498)	GI50 (A549)	GI50 (DMS-273)	GI50 (HL-60)	GI50 (MCF7)	GI50 (MDA-MB-231)	GI50 (NCI-H522)	GI50 (NCI/ADR-RES)	GI50 (PC-3)	GI50 (RXF 393)	GI50 (SF-268)	GI50 (SK-MEL-2)	GI50 (SK-MEL-5)	GI50 (SK-OV-3)	GI50 (TK-10)	GI50 (U-251)	GI50 (UO-31)	GI50 (NCI-H226)	GI50 (SNB-19)
C[C@]12CC[C@H](OC3OC(CO)C(O)C(O)C3O)C[C@H]1CC[C@@H]1[C@@H]2CC[C@]2(C)[C@@H](C3=CCOC3=O)CC[C@]12O (some centres undefined) [ACTODIGIN]	> 100 µM (inactive)	5.48 µM (inactive)	15.7 µM (inactive)	1.97 µM (inactive)	4.51 µM (inactive)	10.4 µM (inactive)	> 100 µM (inactive)	16.8 µM (inactive)	24.4 µM (inactive)	> 100 µM (inactive)	8.49 µM (inactive)	8.2 µM (inactive)	30.9 µM (inactive)	7.52 µM (inactive)	> 50 µM (inactive)	> 100 µM (inactive)	4.73 µM (inactive)	40.3 µM (inactive)	–	–
Nc1ncnc2c1nc(Cl)n2[C@@H]1O[C@@H]2COP(=O)(O)O[C@H]2[C@H]1O [TOCLADESINE]	8.85 µM (inactive)	67.6 µM (inactive)	22.8 µM (inactive)	3.15 µM (inactive)	3.61 µM (inactive)	8.11 µM (inactive)	21.5 µM (inactive)	27.1 µM (inactive)	6.67 µM (inactive)	8.3 µM (inactive)	7.35 µM (inactive)	32 µM (inactive)	> 99.8 µM (inactive)	152 µM (inactive)	10.6 µM (inactive)	15.1 µM (inactive)	67.8 µM (inactive)	16.4 µM (inactive)	6.18 µM (inactive)	122 µM (inactive)
CCN(CC)CCCNc1ncc(C)c2c1c1ccc3c(O)cccc3c1n2C	0.789 µM (active)	13.6 µM (inactive)	0.389 µM (active)	0.76 µM (active)	0.603 µM (active)	0.191 µM (active)	1.57 µM (inactive)	1.05 µM (active)	2.81 µM (inactive)	0.687 µM (active)	1.95 µM (inactive)	2.5 µM (inactive)	12.2 µM (inactive)	6.76 µM (inactive)	4.9 µM (inactive)	10.5 µM (inactive)	1.1 µM (active)	7.89 µM (inactive)	3.44 µM (inactive)	1.07 µM (active)
Nc1nc(CCc2n[nH]c(N)n2)n[nH]1	> 100 µM (inactive)	> 100 µM (inactive)	> 100 µM (inactive)	> 100 µM (inactive)	> 100 µM (inactive)	–	–	> 100 µM (inactive)	–	–	> 100 µM (inactive)	> 100 µM (inactive)	> 100 µM (inactive)	> 100 µM (inactive)	> 100 µM (inactive)	> 100 µM (inactive)	> 100 µM (inactive)	> 100 µM (inactive)	> 100 µM (inactive)	> 100 µM (inactive)
O=C1CCCC[C@H]1[C@H]1CCC[C@@H]([C@H]2CCCCC2=O)C1=O	> 100 µM (inactive)	> 100 µM (inactive)	> 100 µM (inactive)	> 100 µM (inactive)	> 100 µM (inactive)	–	–	> 100 µM (inactive)	–	–	> 100 µM (inactive)	> 100 µM (inactive)	> 100 µM (inactive)	> 100 µM (inactive)	> 100 µM (inactive)	> 100 µM (inactive)	> 100 µM (inactive)	> 100 µM (inactive)	> 100 µM (inactive)	> 100 µM (inactive)
CCN(CC)c1ccc(C(=C2C=CC(=[N+](CC)CC)C=C2)c2ccc(N(CC)CC)cc2)cc1	0.057 µM (active)	–	0.04 µM (active)	0.137 µM (active)	0.0303 µM (active)	0.158 µM (active)	0.063 µM (active)	0.113 µM (active)	0.521 µM (active)	0.0423 µM (active)	0.18 µM (active)	0.084 µM (active)	0.117 µM (active)	0.094 µM (active)	0.0773 µM (active)	0.214 µM (active)	0.0412 µM (active)	0.212 µM (active)	0.407 µM (active)	0.101 µM (active)

From ChEMBL document CHEMBL1201862, “PubChem BioAssay data set” (2004)
